The test system of series [1] is U87 mIDH1 (R132H) xenograft. In words: PK/PD in U87 R132H mIDH1 xenograft mouse model. Type of series: in vivo. The conditions noted are these: single 30 mg/kg p.o.
Another series concerns U87-mIDH1 (R132H) cells. In words: Cellular 2-HG production assay. Type of series: cell-based, human.
A short description of series [2]: Mouse pharmacokinetic study. It is filed as in vivo.
The subject of another series is IDH1(R132H)-86b. In words: SplitLuc CETSA target engagement in HEK293T cells. Type of series: cell-based. The settings on record: relative to 119.
The nature of series [3]: PK/PD in U87 R132H mIDH1 xenograft mouse model. It is filed as in vivo. The conditions noted are these: female, athymic nude (nu/nu NCr), mouse, in vivo, po, 30 mg/kg.
Another series concerns the target WT IDH1 (Homo sapiens, UniProt O75874). Description: IDH1-WT selectivity assay. Type of series: biochemical.
A short description of a further series: Kinetic solubility assay. Type of series: physicochemical. The conditions noted are these: phosphate buffer, pH 7.4.
Another series concerns the target IDH1 R132H (Homo sapiens, UniProt O75874, R132H). In words: diaphorase/resazurin-coupled mIDH1 R132H enzyme assay. Type of series: biochemical.
The target of another series is IDH1 R132C (Homo sapiens, UniProt O75874, R132C). In words: diaphorase/resazurin-coupled mIDH1 R132C enzyme assay. It is filed as biochemical. The settings on record: relative to compound 87. A general note: Resazurin is reduced to fluorescent resorufin, in cell work by metabolically active cells.
IDH1 R132C, sequence (O75874 whole entry R132C): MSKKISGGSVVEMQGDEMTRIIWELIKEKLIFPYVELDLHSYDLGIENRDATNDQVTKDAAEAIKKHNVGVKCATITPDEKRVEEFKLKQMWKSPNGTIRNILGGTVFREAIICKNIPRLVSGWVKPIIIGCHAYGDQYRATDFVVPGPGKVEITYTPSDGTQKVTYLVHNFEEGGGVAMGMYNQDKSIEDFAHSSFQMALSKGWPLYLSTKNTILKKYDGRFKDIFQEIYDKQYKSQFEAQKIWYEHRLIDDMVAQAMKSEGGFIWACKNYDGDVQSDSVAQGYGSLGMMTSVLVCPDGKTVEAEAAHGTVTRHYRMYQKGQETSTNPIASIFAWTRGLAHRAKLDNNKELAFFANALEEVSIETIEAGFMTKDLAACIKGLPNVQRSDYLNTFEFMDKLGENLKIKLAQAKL
A short description of series [4]: Parallel artificial membrane permeability assay. It is filed as in vitro ADME.
Series [5] is described as follows: Single time point rat liver microsome stability assay. It is filed as in vitro ADME. The settings on record: rat liver microsomes, pH 7.4.

In brackets after ≈: the same amount, converted by molar mass.

IDH1 R132H, sequence (O75874 whole entry R132H): as the sequence (O75874 whole entry R132C) above, with C132H counted along it
WT IDH1, sequence (O75874 whole entry): as the sequence (O75874 whole entry R132C) above, with C132R counted along it

By Kp is commonly meant tissue or fluid exposure divided by exposure in the circulation. One may read the Cmax as the peak of the concentration-time curve. Consider `CCc1ccc(Cl)cc1-n1c(C=C(C)C)c(C(=O)N2CCNCC2)cc(-c2nc(-c3ccc(Cl)cc3)cs2)c1=O` (single isomer, unassigned) [(+)-119], for which the “average concentration in tumor at 48 h” value in series [1] (48 h, 30 mg/kg) stood at 7 µM. For the same compound, in series [1] (from the 16 h time point onwards), the “reduction in tumor 2-HG compared to AG-120” value is listed as “greater reduction in tumor 2-HG”. Moreover, the “2-HG levels lowered by (%)” value with U87-mIDH1 (R132H) cells (100 nM, U87-mIDH1 (R132H) cells, 48 h) is on record as “more than 94%”. In addition, the IC50 with U87-mIDH1 (R132H) cells (Homo sapiens, read-out: potency at reducing 2-HG in the cellular assay) is less than 0.7 nM. Besides, the “fold more potent than 119 in U87 2-HG assay” value in the series on U87-mIDH1 (R132H) cells (relative to 119) was 30 fold. In addition, the “brain AUC” value in series [2] (CD1 mice, single 30 mg/kg oral dose) was found to be 6996 ng·h/g. For the same compound, the Kp in series [2] (male, CD1, mouse, brain/plasma, po, 30 mg/kg) was 0.28. This compound had a peak concentration (Cmax) in [2] (male, CD1, mouse, plasma, po, 30 mg/kg) of approximately 3340 nM. The “fold more potent than 119 in HEK293 engagement assay” value in the series on IDH1(R132H)-86b was 13 fold.
In series [3], `N#Cc1ccnc(N2C(=O)CC[C@H]2C(=O)N(c2cncc(F)c2)[C@H](C(=O)NC2CC(F)(F)C2)c2ccccc2Cl)c1` [AG-120] had a concentration at 24 h of 1600 nM, a concentration at 36 h of 1400 nM and a concentration at 48 h of 770 nM.
With `COc1ccc(OC)c(-n2c3c(cc(-c4nc(-c5ccc(Cl)cc5)cs4)c2=O)C(=O)CC(C)(C)C3)c1` [Compound 1, 3-(4-(4-Chlorophenyl)thiazol-2-yl)-1-(2,5-dimethoxyphenyl)-7,7-dimethyl-7,8-dihydroquinoline-2,5(1H,6H)-dione], the “off-target activity against WT IDH1” value on WT IDH1 is “no readout interference and off-target activity against WT IDH1”.
A word on the solubility (kinetic): it is solubility judged after dilution from a stock solution rather than from solid. In “Kinetic solubility assay”, `CCc1cccc(CC)c1-n1c(C)c(C(=O)NC)cc(-c2nc(-c3ccc(Cl)cc3)cs2)c1=O` [Compound 70, 5-(4-(4-Chlorophenyl)thiazol-2-yl)-1-(2,6-diethylphenyl)-N,2-dimethyl-6-oxo-1,6-dihydropyridine-3-carboxamide] displayed a solubility (kinetic) at 6 h of less than 1 µM.
On to `CCc1cccc(CC)c1-n1c(C)c(C(=O)N2CCNCC2)cc(-c2nc(-c3ccc(Cl)cc3)cs2)c1=O` [Compound 87, 3-(4-(4-Chlorophenyl)thiazol-2-yl)-1-(2,6-diethylphenyl)-6-methyl-5-(piperazine-1-carbonyl)pyridin-2(1H)-one], for which the kinetic solubility at 6 h in the series “Kinetic solubility assay” was 6.7 µM (≈ 3.67 µg/mL). Further, the “fold improvement in potency compared to analog 70” value at IDH1 R132H (mIDH1 R132H, relative to 70) is listed as 7 fold.
Regarding `CCc1cccc(CC)c1-n1c(CC2CCNC2)c(C(=O)N2CCNCC2)cc(-c2nc(-c3ccc(Cl)cc3)cs2)c1=O` (stereo not shown) [Compound 98, 3-(4-(4-Chlorophenyl)thiazol-2-yl)-1-(2,6-diethylphenyl)-5-(piperazine-1-carbonyl)-6-(pyrrolidin-3-ylmethyl)pyridin-2(1H)-one], the “IDH1 R132H IC50 Fold improvement over 87” value at IDH1 R132H (relative to compound 87) came to 2.8 fold. For the same compound, the “IDH1 R132C IC50 Fold improvement over 87” value at IDH1 R132C is 12 fold. Besides, the “PAMPA (10^−6 cm/s)” value in series [4] (pH 7.4) was 24 10^−6 cm/s.
For orientation: solubility means the dissolved amount per volume that the medium holds. Low values mean a poorly soluble substance, high ones a readily soluble substance. For orientation: half-life means the time needed for the level to fall by half in the phase considered. A higher half-life goes with slow decline. As usually defined, the Papp is the rate of passage across a membrane or cell layer, normalised by area and donor concentration. Low values mean slow passage, high ones fast passage. On to `CCc1cccc(CC)c1-n1c(C=C(C)C)c(C(=O)N2CCNC(C)C2)cc(-c2nc(-c3ccc(Cl)cc3)cs2)c1=O` (stereo not shown) [Compound 99, 3-(4-(4-Chlorophenyl)thiazol-2-yl)-1-(2,6-diethylphenyl)-5-(3-methylpiperazine-1-carbonyl)-6-(2-methylprop-1-en-1-yl)pyridin-2(1H)-one], for which the solubility at 6 h in “Kinetic solubility assay” was less than 1 µg/mL. This compound gave a half-life at 1 μM in [5] of 25 min. The Papp at 30 min, 0.05 mM in series [4] (PAMPA, pH 7.4, PAMPA (10^−6 cm/s)) came out at 213 ×10⁻⁶ cm/s.

The values above are taken from publication PMC8968748 (Journal of medicinal chemistry, 2021).
